Experimental data from patent US9708259B2 (Hoffmann-La Roche Inc., priority 2013, dated 2017).
Changes are numbered by the printed parent chain. Read-outs that look alike come from different tables or passages of the source.

How the values were obtained:
ratM1 = target: T1, ratM1 (Rattus norvegicus, UniProt P08482); experiment: M1 PAM assay (FLIPR intracellular calcium), rat M1; type: cell-based
T1 construct: expressed in transfected cells; host or cells: CHO cells (stated generally for the assay, not specifically for rat M1)
T1 sequence (P08482 1-460): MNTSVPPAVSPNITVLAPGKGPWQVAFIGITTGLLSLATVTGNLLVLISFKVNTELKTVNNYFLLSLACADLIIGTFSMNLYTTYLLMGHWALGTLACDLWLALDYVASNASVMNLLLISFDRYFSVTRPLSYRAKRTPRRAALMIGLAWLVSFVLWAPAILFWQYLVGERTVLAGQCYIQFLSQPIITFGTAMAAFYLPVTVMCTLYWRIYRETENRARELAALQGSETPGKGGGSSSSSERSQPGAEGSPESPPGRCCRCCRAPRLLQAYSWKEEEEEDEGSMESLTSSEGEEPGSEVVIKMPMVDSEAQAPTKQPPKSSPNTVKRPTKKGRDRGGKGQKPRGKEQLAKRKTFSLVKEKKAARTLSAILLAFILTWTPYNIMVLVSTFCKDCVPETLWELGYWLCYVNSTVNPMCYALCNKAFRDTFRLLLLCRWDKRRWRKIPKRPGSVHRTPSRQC

human M1 = target: T2, human M1 (Homo sapiens, UniProt P11229); experiment: M1 PAM assay (FLIPR intracellular calcium), human M1; type: cell-based
T2 construct: expressed in transfected cells; host or cells: CHO cells
T2 sequence (P11229 1-460): T1 sequence (P08482 1-460) with V5A, S254T, S309P, K320R, G337A, V413I
Protocol: The assay study the effect of several concentrations of test compounds on basal or acetylcholine-stimulated Ca^2+ levels using FLIPR.
CHO human M1 are plated the day before the experiments at 2×10^5 cells/ml in PDL BioCoat 96 well black/clear plate (Becton 35 4640). The cells are grown at 37° C. and 5% CO2 in the following medium: F12 Nut Mix (Gibco 21765), 10% FCS heat inactivated (GIBCO 16000-044), 1% Pen Strep (Gibco,15140) and 200 μg/ml Geneticin (Gibco 11811). On the day of the experiment, the medium was removed and replaced by […] of dye loading buffer containing Hanks Balanced Salt solution (HBSS, 14065-049, Gibco) with 20 mM HEPES (Gibco 15630-056), 2 mM Probenicid (Sigma P8761), […] ester (Molecular Probes F-14202), 10% Pluronic acid Molecular Probes P-3000) pH=7.4 and incubated at 37° C. After 60 minutes extracellular dye was removed and the cells were washed five times with FLIPR buffer containing HBSS (Gibco 14065-049) with 20 mM HEPES (Gibco, 15630-056), 2 mM Probenicid (Sigma P8761) pre-warmed at 37° C. using and Ebml cell washer leaving […] of FLIPR buffer in each well. The cell plate and the diluted compounds (1% DMSO final concentration) are placed on the platform of the FLIPR and the door closed. A signal test to check background fluorescence and basal fluorescence signal is performed. Laser intensity is adjusted if necessary. Two minutes preincubation with the diluted test compounds is provide to determine any agonist activity on the M1 receptor by comparison to 30 nM Acetylcholine control. In order to determine any modulator activity the diluted compounds were added to cells and after two minutes preincubation, the EC20 of acetylcholine is added followed by another two minutes preincubation before the measurement of intracellular Ca^2+ with a FLIPR (Molecular Devices).

[1] = rat M1, FLIPR Ca2+, second value of the cell, read-out: ratM1 EC50
[2] = CHO human M1 cells, FLIPR Ca2+, with EC20 of acetylcholine, first value of the cell, read-out: hM1 EC50

| SMILES | EC50 (ratM1; [1]) | EC50 (human M1; [2]) | EC50 (ratM1) | EC50 (human M1) |
| --- | --- | --- | --- | --- |
| O=C(N[C@H]1CCCC[C@@H]1O)c1cn(Cc2ccc(N3CCCC3)nc2)c2cccc(F)c12 [Example 162, 4-fluoro-N-((1S,2S)-2-hydroxycyclohexyl)-1-((6-(pyrrolidin-1-yl)pyridin-3-yl)methyl)-1H-indole-3-carboxamide] | 751 nM | 214 nM |  |  |
| CNC(=O)c1ccc(Cn2cc(CC(=O)N[C@H]3CCCC[C@@H]3O)c3c(F)cccc32)cc1 [Example 99] | 195 nM | 54 nM |  |  |
| CNC(=O)c1ccc(Cn2cc(C(=O)NC3CCOCC3)c3c(F)cccc32)cc1F [Example 163, 4-Fluoro-1-(3-fluoro-4-(methylcarbamoyl)benzyl)-N-(tetrahydro-2H-pyran-4-yl)-1H-indole-3-carboxamide] | 82 nM | 59 nM |  |  |
| CNC(=O)c1ccc(Cn2cc(C(=O)NC3CCCCC3(F)F)c3c(F)cccc32)cc1 (centres unmarked) [Example 120, N-(2,2-difluorocyclohexyl)-4-fluoro-1-[[4-(methylcarbamoyl)phenyl]methyl]indole-3-carboxamide] | 32 nM | 15 nM |  |  |
| Cn1cc(-c2ccc(Cn3cc(C(=O)N[C@H]4CCOC[C@@H]4O)c4c(F)cccc43)cc2)cn1 (single isomer, unassigned) [Example 55, 4-fluoro-N-((3R,4S) or (3S,4R)-3-hydroxytetrahydro-2H-pyran-4-yl)-1-(4-(1-methyl-1H-pyrazol-4-yl)benzyl)-1H-indole-3-carboxamide] | 2.82 nM | 2.11 nM |  |  |
| CNC(=O)c1ccc(Cn2cc(C(=O)NCC3CC3)c3c(F)cccc32)cc1 [Example 116, N-(cyclopropylmethyl)-4-fluoro-1-[[4-(methylcarbamoyl)phenyl]methyl]indole-3-carboxamide] | 320 nM | 74 nM |  |  |
| Cn1cc(-c2ccc(Cn3cc(C(=O)N[C@@H]4CCCC(F)(F)[C@H]4O)c4c(F)cccc43)cc2)cn1 [Example 100, N-((1R,2S)-3,3-difluoro-2-hydroxycyclohexyl)-4-fluoro-1-(4-(1-methyl-1H-pyrazol-4-yl)benzyl)-1H-indole-3-carboxamide] | 15 nM | 4 nM |  |  |
| Cn1cc(-c2ccc(Cn3cc(C(=O)N[C@@H]4CCOC[C@H]4O)c4c(F)cccc43)c(F)c2)cn1 (single isomer, unassigned) [Example 70, 4-Fluoro-1-(2-fluoro-4-(1-methyl-1H-pyrazol-4-yl)benzyl)-N-((3S,4R) or (3R,4S)-3-hydroxytetrahydro-2H-pyran-4-yl)-1H-indole-3-carboxamide] | 284 nM | 102 nM |  |  |
| Cn1cc(-c2ccc(Cn3cc(C(=O)N[C@H]4CCCC[C@@H]4O)c4c(F)c(F)c(F)c(F)c43)c(F)c2)cn1 [Example 26, 4,5,6,7-Tetrafluoro-1-(2-fluoro-4-(1-methyl-1H-pyrazol-4-yl)benzyl)-N-((1S,2S)-2-hydroxycyclohexyl)-1H-indole-3-carboxamide] | 201 nM | 80.6 nM |  |  |
| CNC(=O)c1ccc(Cn2cc(C(=O)NC3(C)CCOCC3)c3c(F)cccc32)cc1 [Example 123, 4-fluoro-1-[[4-(methylcarbamoyl)phenyl]methyl]-N-(4-methyloxan-4-yl)indole-3-carboxamide] | 680 nM | 364 nM |  |  |
| Cn1ncc2cc(Cn3cc(C(=O)N[C@H]4CCOC[C@@H]4O)c4c(F)cccc43)ccc21 (single isomer, unassigned) [Example 52, 4-fluoro-N-((3R,4S) or (3S,4R)-3-hydroxytetrahydro-2H-pyran-4-yl)-1-((1-methyl-1H-indazol-5-yl)methyl)-1H-indole-3-carboxamide] |  |  | 27 nM | 17.9 nM |
| O=C(NC1CC1)c1ccc(Cn2cc(C(=O)N[C@H]3CCCC[C@@H]3O)c3c(F)cccc32)cc1 [Example 146, 1-(4-(cyclopropylcarbamoyl)benzyl)-4-fluoro-N-((1S,2S)-2-hydroxycyclohexyl)-1H-indole-3-carboxamide] | 5 nM | 2 nM |  |  |
| Cc1cn(-c2ccc(Cn3cc(C(=O)N[C@H]4CCCC[C@@H]4O)c4c(F)cccc43)cc2)cn1 [Example 36, 4-fluoro-N-((1S,2S)-2-hydroxycyclohexyl)-1-(4-(4-methyl-1H-imidazol-1-yl)benzyl)-1H-indole-3-carboxamide] | 25.9 nM | 15.5 nM |  |  |
| O=C(N[C@H]1CCOC[C@@H]1O)c1cn(Cc2ccc(-n3cncn3)nc2)c2cccc(F)c12 [Example 78, 1-((6-(1H-1,2,4-triazol-1-yl)yridine-3-yl)methyl)-4-fluoro-N-((3R,4S)-3-hydroxytetrahydro-2H-pyran-4-yl)-1H-indole-3-carboxamide] | 728 nM | 522 nM |  |  |
| Cn1cc(-c2ccc(Cn3nc(C(=O)N[C@H]4CCCC[C@@H]4O)c4c(F)ccc(F)c43)cn2)cn1 [Example 75, 4,7-difluoro-N-((1S,2S)-2-hydroxycyclohexanol)-1-((6-(1-methyl-1H-pyrazol-4-yl)yridine-3-yl)methyl)-1H-indazole-3-carboxamide] | 46 nM | 40.1 nM |  |  |
| CNC(=O)c1ccc(Cn2cc(C(=O)NC3CCC3)c3c(F)cccc32)cc1 [Example 112, N-cyclobutyl-4-fluoro-1-[[4-(methylcarbamoyl)phenyl]methyl]indole-3-carboxamide] | 168 nM | 72 nM |  |  |
| Cc1ccc(F)c2c(C(=O)N[C@H]3CCCC[C@@H]3O)cn(Cc3ccc(-c4cnn(C)c4)cc3)c12 [Example 46, 4-fluoro-N-((1S,2S)-2-hydroxycyclohexyl)-7-methyl-1-(4-(1-methyl-1H-pyrazol-4-yl)benzyl)-1H-indole-3-carboxamide] | 22.2 nM | 10.3 nM |  |  |
| COc1ccc(F)c2c(C(=O)NC3CCOCC3)cn(Cc3ccc(-c4cnn(C)c4)cc3)c12 [Example 151, 4-fluoro-7-methoxy-1-(4-(1-methyl-1H-pyrazol-4-yl)benzyl)-N-(tetrahydro-2H-pyran-4-yl)-1H-indole-3-carboxamide] | 299 nM | 194 nM |  |  |
| O=C(N[C@H]1CCOC[C@@H]1O)c1cn(CC2CCN(c3ccccn3)CC2)c2cccc(F)c12 [Example 136, 4-fluoro-N-((3R,4S)-3-hydroxytetrahydro-2H-pyran-4-yl)-1-((1-(pyridin-2-yl)piperidin-4-yl)methyl)-1H-indole-3-carboxamide] | 428 nM | 134 nM |  |  |
| CNC(=O)c1ccc(Cn2cc(C(=O)NC3CCOCC3)c3c(F)cccc32)cc1 [Example 132, 4-fluoro-1-(4-(methylcarbamoyl)benzyl)-N-(tetrahydro-2H-pyran-4-yl)-1H-indole-3-carboxamide] | 22 nM | 3 nM |  |  |
| O=C(N[C@H]1CCCC[C@@H]1O)c1cn(Cc2ccccc2)c2cccc(F)c12 [Example 47, 1-benzyl-4-fluoro-N-((1S,2S)-2-hydroxycyclohexyl)-1H-indole-3-carboxamide] |  |  | 393 nM | 118 nM |
| CNC(=O)c1ccc(Cn2cc(CC(=O)N[C@H]3CCOC[C@@H]3O)c3c(F)cccc32)cc1 [Example 98, 4-((4-fluoro-3-(2-((3R,4S)-3-hydroxytetrahydro-2H-pyran-4-ylamino)-2-oxoethyl)-1H-indol-1-yl)methyl)-N-methylbenzamide] | 134 nM | 32 nM |  |  |
